For assay [1], the target named is T1, M2PYK (Homo sapiens, UniProt P14618).
T1 construct: and N-terminal domain (blue, residues 13–43. Residues 1–12, as well as additional residues from the His6-tagged construct); made in house; host or cells: Escherichia coli BL21(DE3), pET28a
The assay can be described thus: Enzyme kinetics of M2PYK for PEP with saturating ADP in presence of amino acids. The assay is classed as biochemical. The note with it: kinetic curves at different inhibitor concentrations. The procedure:
For the determination of kinetics of M2PYK in the absence/presence of amino acid modulators, enzymatic activity assays were performed as follows. A 5 µl aliquot of 0.002 mg/ml M2PYK in PBS-CM was incubated with different concentrations of amino acids in PBS-CM supplemented with 1 mM dithiothreitol at 37°C at pH 7.4 for 10 min. Then, the same volume of assay buffer [PBS-CM supplemented with 10 mM MgCl2, 100 mM KCl, 1 mM NADH, 40 µmol/min ml LDH, as well as saturating ADP (4 mM) and titrated substrate PEP (0.15–10 mM)] was added. […] For these uncompetitive inhibitors the Ki values were calculated to be equal to IC50/2.
Values of the kinetic parameters (Vmax, K0.5(PEP), and nH) were determined by fitting the equation below to the data. V=Vmax×[PEP]^nH/K0.5nH+[PEP]^nH The Lineweaver–Burk plots were fit using the equation below: Y=K0.5nH+(1/x)^nH/Vmax×(1/x)^nH The Berkley Madonna software (http://www.berkeleymadonna.com/) was used to model approximate proportions of monomer and tetramer M2PYK at given total protein concentrations. The calculation was based on a simplified tetramer [T] monomer [M] equilibrium: [T]⇌[M]+[M]+[M]+[M]withKd=[M]^4/[T] […] The association rate constant was scaled to give a Kd of 0.9 µM, which was estimated from analytical gel chromatography results.
The kinetic curves are shown in Figure 4 and Supplementary Figure S4.

In assay [2] the target is T1, M2PYK. Briefly: X-ray co-crystal structures of M2PYK with amino acids. The note with it: wild-type M2PYK co-crystallised with the amino acid. The procedure: Single crystals of M2PYK were obtained at 17°C by vapour diffusion using the hanging-drop technique. The drops were formed by mixing 1.5 µl of wild-type M2PYK (20 mg/ml) solution containing ligands with 1.5 µl of reservoir solution (composed of 11–16% PEG 3350, 100 mM sodium cacodylate, 50 mM MgCl2, and 100 mM KCl). […] The pH for obtaining optimal crystals was 7.2–7.8. Before data collection, crystals were dipped in a freezing solution consisting of reservoir solution supplemented with the same concentration of ligands as in the original solution, as well as up to 35% PEG 3350, which eliminated the appearance of ice rings. Diffraction data were collected at the Diamond synchrotron radiation facility in Oxfordshire, U.K. on beamline I03 (for the M2PYK/Ala structure), I04-1 (for the M2PYK/Phe and the M2PYK/Trp structures), and I24 (for the M2PYK/Ser structure). All datasets were obtained from a single crystal flash-frozen in liquid nitrogen. A more detailed description and discussion of the crystallisation trials is in the Supplementary Material.
All four M2PYK structures were solved by molecular replacement using the program PHASER [40]. A monomer (Chain A) from the previously determined tetrameric structure of M2PYK (in R-state, PDB ID: 4B2D) served as the search model for the M2PYK/Ser structure. Chain A of a different M2PYK structure (in T-state, PDB ID: 4FXJ) was used as the search model for the M2PYK/Phe, M2PYK/Ala, and M2PYK/Trp structures. There were clear molecular replacement solutions for all structures. The resulting models were then subjected to 10 cycles of rigid body refinement using the program REFMAC [41]. Afterwards, manual changes were made to models to adjust side chain conformations and to add additional residues to the N terminus using COOT [42]. The models were then subjected to several rounds of translation libration screw refinement and restrained refinement, and ligand molecules were added where clear unbiased Fo–Fc electron density was observed. Water molecules were added to the model using COOT, and after several rounds of restrained refinement, R/Rfree values converged.

In assay [3] the target is T1, M2PYK. Briefly: M2PYK activity at sub-saturating PEP and ADP: amino-acid IC50/Ki and serine versus alanine/phenylalanine competition. Format: biochemical. The note with it: for Ki: calculated as IC50/2 (uncompetitive inhibitors), read-out: inhibitor constant (Ki) against M2PYK; for IC50: sub-saturating PEP and ADP, 0 µM serine, read-out: IC50 against M2PYK. The procedure:
For the determination of kinetics of M2PYK in the absence/presence of amino acid modulators, enzymatic activity assays were performed as follows. A 5 µl aliquot of 0.002 mg/ml M2PYK in PBS-CM was incubated with different concentrations of amino acids in PBS-CM supplemented with 1 mM dithiothreitol at 37°C at pH 7.4 for 10 min. […] For these uncompetitive inhibitors the Ki values were calculated to be equal to IC50/2.
The decrease in absorbance at 340 nm was measured for 5 min at 37°C using a plate reader. […]

The target of assay [4] is T1, M2PYK. The assay can be described thus: Analytical gel chromatography of M2PYK oligomerisation/dissociation. The note with it: 10 mM amino acid; 0.1 mg/ml M2PYK; PBS-CM pH 7.4, room temperature, 12 h. The procedure:
Analytical gel chromatography was performed to characterise the oligomerisation/dissociation of M2PYK in the presence/absence of different amino acids. Aliquots of 400 µl of 0.1 mg/ml purified M2PYK were incubated with or without 10 mM amino acids in PBS-CM at room temperature at pH 7.4 overnight. After the incubation, samples were loaded independently onto a Superdex 200 PC 3.2/30 gel-filtration column. Samples of 25 µl were injected, and the column flow rate was maintained at 0.1 ml/min. Protein peaks were monitored using the absorbance at both 280 and 214 nm. The retention volumes for the M2PYK peaks were the same as those identified by SEC-MALS as monomer and tetramer peaks (using the same Superdex 200 column) in our previous study.
Analytical gel chromatography was used to investigate the effects of amino acids on the oligomerisation of M2PYK. […] Dissociation studies of M2PYK using SEC-MALS [13] and ultracentrifugation show the predominant forms in solution are tetramer and monomer.

For assay [5], the target named is T1, M2PYK. Briefly: ELISA with anti-M2PYK antibody binding the C–C interface (monomer–tetramer equilibrium). The note with it: 10 mM amino acid; 0.0039–2.5 µg/ml M2PYK; 1 h, pH 7.4, room temperature. An excerpt:
For the production of specific antibodies, a peptide immunogen (Supplementary Figure S1) specific for M2PYK was covalently conjugated with the carrier protein BSA, and injected into Balb/c female mice (6–7 weeks) at 2-week intervals. A mouse showing best selectivity for M2PYK was chosen as a spleen donor. After the production of a hybridoma, a cell line secreting a specific monoclonal antibody was screened and expanded. The specific monoclonal antibody against M2PYK was identified, purified and conjugated with horseradish peroxidase (HRP) for further ELISAs.
A stock solution of anti-His-tag antibody in carbonate buffer (pH 9.6) was coated onto wells at 50 µl/well at 4°C overnight. The wells were then blocked with 100 µl/well of PBS/Tween 20/3% BSA for 1 h at room temperature. Titrated M2PYK (2.5–0.0039 µg/ml) was incubated with or without ligands (10 mM for all amino acids and 1 mM for FBP) in PBS/Tween 20/3% BSA at room temperature for 1 h. Then, 100 µl of the solution was added to each prepared well for an incubation of 1 h. Afterwards, a 100 µl aliquot of PBS/Tween 20/3% BSA containing 4 µg/ml HRP-conjugated M2PYK antibody was added to each well and incubated for 1 h at room temperature. Electrochemiluminescence solution was added at 50 µl/well to develop the luminescence, which was read immediately with a plate reader. Three washes with PBS/Tween 20/3% BSA were performed between each step.
To investigate the effect of ligand binding on monomer–tetramer equilibrium at lower protein concentrations, we developed an ELISA assay. […] As the epitope is hidden in the tetrameric form of M2PYK, antibody binding on the C–C interface of M2PYK reflects the amount of monomer/dimer but not tetramer. The ELISA tests were performed using low concentrations of His6-M1/2PYK (0.0039–2.5 µg/ml) incubated with no ligand or 10 mM of each amino acid for 1 h in PBS-CM at pH 7.4 at room temperature. The incubated solutions were added to 96-well plates precoated with anti-His-tag antibodies. HRP-conjugated M2PYK antibodies were then incubated, followed by luminescence reading.
(ELISA stands for enzyme-linked immunosorbent assay.)

The target of assay [6] is T1, M2PYK. More on the design: method as in PMID 23530218. Particulars: previously shown; cited from earlier work.
In the next assay the test system is cell proliferation. On the set-up: method as in PMID 23530218. The note with it: via activation or inhibition of M2PYK; cited from earlier work.
Assay [7] concerns the target T1, M2PYK. Briefly: PYK activity modulator screen (LDH-coupled enzymatic activity assay). The note with it: 2.5 mM ligand, sub-saturating PEP and ADP; for activation of M2PYK activity: pH 7.4, 37°C, relative to no ligand. The assay is classed as biochemical. On the procedure: (§1) For the identification of PYK activity modulators, enzymatic activity assays were performed as follows. A 1.9 µl aliquot of 20 mg/ml M1 or M2PYK in PBS-CM was added individually into […] of different amino acids at 5 mM in PBS-CM at pH 7.4 followed by an incubation at 37°C for 10 min. Then, the same volume of assay buffer [PBS-CM supplemented with 10 mM MgCl2, 100 mM KCl, 1 mM NADH, 40 µmol/min ml lactate dehydrogenase (LDH), as well as sub-saturating substrates PEP (1 mM) and ADP (0.8 mM)] was added into the protein solution and mixed (so the concentrations of all reagents were halved). The decrease in absorbance at 340 nm (the absorbance of NADH) was measured for 5 min at 37°C using a plate reader. PEP, ADP, LDH, NADH, FBP and all amino acids were from Sigma–Aldrich.
(§2) FBP was used as a positive control. The reaction was performed after pre-incubation in the presence of sub-saturating substrates in PBS at pH 7.4 at 37°C as described in Experimental Procedures.

The target of a further assay is T2, M1PYK (Homo sapiens, UniProt P14618).
T2 construct: made in house; host or cells: Escherichia coli BL21(DE3), pET28a
Described as above. The assay is classed as biochemical. The note with it: 2.5 mM ligand, sub-saturating PEP and ADP; for inhibition of M1PYK activity: pH 7.4, 37°C, relative to no ligand. On the procedure:
as §1, §2

Assay [8] has as its system M2PYK. More on the design: method as in Chaneton et al. 2012. Particulars: 4 nM M2PYK; ref Chaneton et al. 2012; cited from earlier work.

T1 sequence (P14618 whole entry, the tested form may be a part): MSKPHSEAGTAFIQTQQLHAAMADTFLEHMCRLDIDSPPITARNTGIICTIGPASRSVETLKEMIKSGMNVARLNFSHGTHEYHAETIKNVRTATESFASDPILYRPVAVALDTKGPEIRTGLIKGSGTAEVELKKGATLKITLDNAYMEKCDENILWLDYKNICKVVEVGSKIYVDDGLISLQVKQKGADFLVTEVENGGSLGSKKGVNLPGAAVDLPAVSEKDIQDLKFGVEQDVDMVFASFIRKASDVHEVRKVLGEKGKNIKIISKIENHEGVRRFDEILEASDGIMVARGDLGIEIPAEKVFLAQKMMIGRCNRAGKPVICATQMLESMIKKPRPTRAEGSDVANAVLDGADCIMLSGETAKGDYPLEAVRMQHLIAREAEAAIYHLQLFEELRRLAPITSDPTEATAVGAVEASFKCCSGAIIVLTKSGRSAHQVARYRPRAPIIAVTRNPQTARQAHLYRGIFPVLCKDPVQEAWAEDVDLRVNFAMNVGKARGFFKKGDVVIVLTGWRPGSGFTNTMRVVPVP
T2 sequence (P14618 1-531 isoform P14618-2): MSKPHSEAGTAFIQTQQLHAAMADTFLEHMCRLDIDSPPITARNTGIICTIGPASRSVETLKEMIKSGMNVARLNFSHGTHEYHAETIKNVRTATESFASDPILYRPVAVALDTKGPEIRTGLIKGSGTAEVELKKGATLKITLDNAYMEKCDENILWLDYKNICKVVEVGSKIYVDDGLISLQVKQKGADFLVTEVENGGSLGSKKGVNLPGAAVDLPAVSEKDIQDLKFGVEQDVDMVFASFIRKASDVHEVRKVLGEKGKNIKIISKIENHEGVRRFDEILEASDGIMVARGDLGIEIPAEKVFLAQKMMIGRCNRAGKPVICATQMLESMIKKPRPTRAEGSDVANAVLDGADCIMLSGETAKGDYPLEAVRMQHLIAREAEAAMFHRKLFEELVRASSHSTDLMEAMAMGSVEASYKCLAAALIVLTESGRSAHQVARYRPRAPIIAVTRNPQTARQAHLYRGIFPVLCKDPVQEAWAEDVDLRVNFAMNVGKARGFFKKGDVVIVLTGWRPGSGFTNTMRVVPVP

As a reminder, the Ki is a measure of affinity in units of concentration, obtained from inhibition or displacement. By IC50 is commonly meant the concentration that inhibits the measured activity by half. For the molecule `C[C@H](N)C(=O)O` [alanine, L-alanine], at M2PYK [1], the “mode of inhibition of M2PYK” value is “allosteric uncompetitive inhibitors”. In addition, the “Conformation of M2PYK tetramer in co-crystal structure” value (from here on “Conformation of M2PYK tetramer”) at M2PYK [2] is given as “T-state”. In addition, the M2PYK activity at M2PYK [3] (alanine 200–300 µM in the presence of serine ∼0.6 mM) is listed as approximately 65%. Moreover, the M2PYK activity on M2PYK [3] (alanine 200–300 µM, no serine) was approximately 10%. At M2PYK [3], the Ki was 62 µM and the IC50 came to 124 µM. For the same molecule, the “effect on M2PYK oligomerisation (tetramer versus monomer)” value (shortened to “effect … (tetramer versus monomer)”) on M2PYK [4] is on record as “stabilised tetramers over monomers”. Further, the “oligomeric state of M2PYK at low protein concentration” value (from here on “oligomeric state of M2PYK”) on M2PYK [5] is given as “predominantly tetrameric”.
As for “fructose 1,6-bisphosphate [FBP, reference compound]”, the “effect on M2PYK oligomerisation” value on M2PYK [6] was “stabilised the tetrameric form”. Further, the “effect on cell proliferation” value in the assay with cell proliferation is recorded as “inhibits cell proliferation”. Also, the “activation of M2PYK activity” value on M2PYK [7] is recorded as approximately 40%. Further, the “regulatory effect on M1PYK activity” value on M1PYK is given as “little or no regulatory effect”. For the same molecule, the “effect on M2PYK activity in end-point assay” value with M2PYK [8] is “showed activation”.
As to `NCC(=O)O` [glycine], the “inhibition of M1PYK activity” value against M1PYK is 10%.
The same measure, in the same setting: in the case of `NCCCC[C@H](N)C(=O)O` [lysine] it was 10%.
As to `N[C@@H](Cc1c[nH]cn1)C(=O)O` [histidine], at M2PYK [7], the “M2PYK activity normalised to activity in absence of ligands (100%)” value is “higher than 120%” and the “activation of M2PYK activity” value is approximately 30%.
Consider `N[C@@H](CO)C(=O)O` [serine, L-serine], for which the “Conformation of M2PYK tetramer” value on M2PYK [2] is recorded as “R-state”. In addition, the “effect … (tetramer versus monomer)” value at M2PYK [4] is reported as “stabilised tetramers over monomers”. Moreover, on M2PYK [7], the “M2PYK activity normalised to activity in absence of ligands (100%)” value is reported as “higher than 120%” and the “activation of M2PYK activity” value is on record as approximately 30%. Also, in the assay with M2PYK [8], the “effect on M2PYK activity in end-point assay” value is recorded as “showed activation”. Further, on M2PYK [5], the “oligomeric state of M2PYK” value is “predominantly tetrameric”.
As for `N=C(N)NCCC[C@H](N)C(=O)O` [arginine], the “inhibition of M1PYK activity” value against M1PYK is given as 10%.
As to `N[C@@H](Cc1c[nH]c2ccccc12)C(=O)O` [tryptophan, L-tryptophan], the “mode of inhibition of M2PYK” value at M2PYK [1] is “allosteric uncompetitive inhibitors”. Moreover, the “Conformation of M2PYK tetramer” value on M2PYK [2] is “T-state”. On M2PYK [3], the Ki was 222 µM and the IC50 is 445 µM. Moreover, on M2PYK [4], the “effect … (tetramer versus monomer)” value is “stabilised tetramers over monomers”. In addition, the “oligomeric state of M2PYK” value at M2PYK [5] is “predominantly tetrameric”.

The values above are taken from article PMC5980995, “An allostatic mechanism for M2 pyruvate kinase as an amino-acid sensor” (Biochemical Journal, 2018).
